Here are results for nine compounds from PubChem BioAssay (NCI).

Some test systems named below: OVCAR-3 ovarian; COLO 205 colon; BT-549 breast; DU-145 prostate; NCI-H522 lung; PC-3 prostate; U251 CNS; MOLT-4 leukemia.
Assay in all cases: NCI tumour cell line growth inhibition, 48 h

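In this assay, cells in 96-well plates receive the compound at five concentrations for 48 hours. Endpoints are linearly interpolated between the surrounding concentrations. At the GI50, growth is halved. TGI: concentration producing complete growth inhibition.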

Consider `CCc1c(C)c2cc(-n3c(-c4ccc(OC)cc4)csc3=N)c(O)c(C)c2oc1=O`, for which the GI50 was 1190 nM with OVCAR-3 ovarian; 1940 nM with COLO 205 colon; 1000 nM with BT-549 breast; 3000 nM with DU-145 prostate; 646 nM with NCI-H522 lung; 752 nM in the experiment with PC-3 prostate. In addition, the GI50 in the experiment on U251 CNS was 1770 nM; with MOLT-4 leukemia, 1540 nM. The TGI with OVCAR-3 ovarian was 3080 nM; with COLO 205 colon, 4880 nM; in the experiment on BT-549 breast it was 5020 nM; in the experiment on DU-145 prostate, 12300 nM; in the experiment with NCI-H522 lung it was 2460 nM; in the experiment on PC-3 prostate, greater than 100000 nM. Further, the TGI in the experiment on U251 CNS is 6090 nM; in the experiment on MOLT-4 leukemia, greater than 100000 nM.
Regarding `COc1cc(-c2ccc[nH]2)[nH]c1/C=C1\N=C(C)C(CC(=O)OCC(C)(C)C)=C1C`, the GI50 was 254 nM with OVCAR-3 ovarian; 206 nM in the experiment on COLO 205 colon; 286 nM with BT-549 breast; 226 nM in the experiment with DU-145 prostate; 230 nM with NCI-H522 lung; 100 nM with PC-3 prostate. Also, the GI50 is 141 nM in the experiment with U251 CNS and 242 nM in the experiment on MOLT-4 leukemia. The TGI in the experiment on OVCAR-3 ovarian is 1150 nM; in the experiment with COLO 205 colon it was 1220 nM; in the experiment on BT-549 breast, 1870 nM; in the experiment with DU-145 prostate, 1530 nM; in the experiment on NCI-H522 lung, 1510 nM; in the experiment on PC-3 prostate, 1650 nM. For the same compound, the TGI in the experiment on U251 CNS was 1230 nM; with MOLT-4 leukemia it was 1320 nM.
For `C=C(C)C(=O)Nc1ccc(-c2c(-c3ccc(Oc4nccc(C)n4)c(F)c3)c3c(N)ncnc3n2C)cc1`, the GI50 in the experiment with OVCAR-3 ovarian was 4770 nM; with COLO 205 colon, 3790 nM; with BT-549 breast, 2080 nM; in the experiment with DU-145 prostate, 3860 nM; in the experiment on NCI-H522 lung it was 3570 nM; with PC-3 prostate, 6780 nM. In addition, the GI50 with U251 CNS is 6210 nM; in the experiment on MOLT-4 leukemia, 2780 nM. In addition, the TGI turned out to be 18400 nM in the experiment with OVCAR-3 ovarian; 13800 nM in the experiment with COLO 205 colon; 15800 nM in the experiment on BT-549 breast; 15300 nM in the experiment with DU-145 prostate; 16100 nM with NCI-H522 lung; 67500 nM with PC-3 prostate. For the same compound, the TGI in the experiment on U251 CNS is 25000 nM; in the experiment on MOLT-4 leukemia it was greater than 100000 nM.
Regarding `COc1ccc2c(c1)/C(=N/OC(C)=O)c1c-2c(OC)nc2ccccc12`, the GI50 in the experiment on OVCAR-3 ovarian, in the experiment on COLO 205 colon, in the experiment with BT-549 breast, with DU-145 prostate, with NCI-H522 lung and in the experiment on PC-3 prostate was greater than 100000 nM in each case. In addition, the GI50 with U251 CNS and in the experiment on MOLT-4 leukemia was greater than 100000 nM in each case. The TGI in the experiment with OVCAR-3 ovarian, in the experiment with COLO 205 colon, in the experiment on BT-549 breast, in the experiment with DU-145 prostate, in the experiment with NCI-H522 lung and with PC-3 prostate was greater than 100000 nM each time. For the same compound, the TGI in the experiment on U251 CNS and with MOLT-4 leukemia was greater than 100000 nM throughout.
Take `COC(=O)c1cc(-c2ccc(S(C)(=O)=O)cc2)[nH]c1N/N=C/c1c(Cl)cccc1Cl`: the GI50 is 273 nM in the experiment with OVCAR-3 ovarian; 491 nM in the experiment on COLO 205 colon; 915 nM with BT-549 breast; 732 nM in the experiment on DU-145 prostate; 988 nM in the experiment on NCI-H522 lung; 565 nM with PC-3 prostate. For the same compound, the GI50 with U251 CNS was 489 nM; in the experiment on MOLT-4 leukemia it was 514 nM. The TGI was 704 nM with OVCAR-3 ovarian; 4720 nM in the experiment with COLO 205 colon; 62000 nM with BT-549 breast; 5530 nM in the experiment with DU-145 prostate; greater than 50000 nM with PC-3 prostate; greater than 54600 nM in the experiment with U251 CNS. The compound also yielded a TGI in the experiment with MOLT-4 leukemia greater than 100000 nM.
`COc1ccc2c(c1)C(=O)c1c-2n(CCCN(C)C)c(=O)c2cc([N+](=O)[O-])ccc12`: the GI50 in the experiment on OVCAR-3 ovarian was 19.1 nM; with COLO 205 colon, 48.3 nM; in the experiment with BT-549 breast, 15.9 nM; in the experiment with DU-145 prostate it was less than 10 nM; with NCI-H522 lung, less than 10 nM; with PC-3 prostate, less than 27.8 nM. Also, the GI50 with U251 CNS and in the experiment with MOLT-4 leukemia was less than 10 nM each time. For the same compound, the TGI with OVCAR-3 ovarian was 748 nM; with COLO 205 colon, 12900 nM; in the experiment on BT-549 breast it was 621 nM; in the experiment with DU-145 prostate, 31.9 nM; with NCI-H522 lung, 898 nM; in the experiment on PC-3 prostate it was 1050 nM. The TGI in the experiment on U251 CNS was 1070 nM; in the experiment with MOLT-4 leukemia, 282 nM.
As for `COC(=O)c1cc2cc(/C=C3/SC(=S)N(N(C(C)=O)C(C)=O)C3=O)oc2n1Cc1ccccc1`, the GI50 with OVCAR-3 ovarian was 19500 nM; in the experiment on COLO 205 colon it was 77600 nM; in the experiment on BT-549 breast, 24200 nM; in the experiment with DU-145 prostate, 20700 nM; in the experiment on NCI-H522 lung, 19100 nM; in the experiment with PC-3 prostate, 37800 nM. Moreover, the GI50 in the experiment on U251 CNS is 12800 nM; with MOLT-4 leukemia it was 59900 nM. In addition, the TGI in the experiment with OVCAR-3 ovarian was 51000 nM; with COLO 205 colon, greater than 100000 nM; with BT-549 breast it was 54200 nM; in the experiment with DU-145 prostate, 73400 nM; in the experiment with NCI-H522 lung, 48600 nM; in the experiment with PC-3 prostate, greater than 100000 nM. For the same compound, the TGI in the experiment on U251 CNS was 30800 nM; in the experiment on MOLT-4 leukemia it was greater than 100000 nM.
In the case of `COc1ccc2nc3ccccc3c(NCCNCC(C)O)c2c1` (configuration not stated), the GI50 with OVCAR-3 ovarian is 449 nM; in the experiment on COLO 205 colon, 192 nM; in the experiment with BT-549 breast, 1610 nM; in the experiment on DU-145 prostate it was 516 nM; with NCI-H522 lung, 427 nM; in the experiment with PC-3 prostate, 537 nM. The GI50 in the experiment on U251 CNS is 549 nM; in the experiment on MOLT-4 leukemia, 368 nM. Besides, the TGI is 9400 nM in the experiment on OVCAR-3 ovarian; 704 nM with COLO 205 colon; 5730 nM in the experiment with BT-549 breast; 14700 nM in the experiment with DU-145 prostate; 2090 nM in the experiment with NCI-H522 lung; 4820 nM in the experiment with PC-3 prostate. In the experiment on U251 CNS, this compound had a TGI of 4940 nM.
On to `CC/C=C\C[C@H]1C/C=C2/C(=O)C(Cl)=C[C@@H]2C/C=C\CCCC(=O)O1`, for which the GI50 is 153 nM with OVCAR-3 ovarian; 467 nM in the experiment on COLO 205 colon; 524 nM in the experiment with BT-549 breast; 517 nM with DU-145 prostate; 156 nM in the experiment on NCI-H522 lung; 346 nM in the experiment with PC-3 prostate. Moreover, the GI50 is 214 nM in the experiment with U251 CNS and 329 nM in the experiment on MOLT-4 leukemia. The TGI with OVCAR-3 ovarian stood at 677 nM; in the experiment on COLO 205 colon it was 958 nM; in the experiment with BT-549 breast, 1210 nM; in the experiment with DU-145 prostate, 1850 nM; in the experiment on NCI-H522 lung it was 556 nM; in the experiment on PC-3 prostate it was 986 nM. Besides, the TGI in the experiment with U251 CNS was 694 nM; in the experiment with MOLT-4 leukemia it was 2200 nM.
